Target: Tyrosine-protein kinase HCK (Homo sapiens) (UniProt P08631)
Experiment: HCK kinase inhibition, dose response, biochemical, Z'-LYTE, FRET readout, direct format (AID 1671291)
Details: Z'-LYTE FRET peptide phosphorylation, recombinant HCK

Tyrosine-protein kinase HCK (Homo sapiens), sequence (P08631 whole entry, looked up): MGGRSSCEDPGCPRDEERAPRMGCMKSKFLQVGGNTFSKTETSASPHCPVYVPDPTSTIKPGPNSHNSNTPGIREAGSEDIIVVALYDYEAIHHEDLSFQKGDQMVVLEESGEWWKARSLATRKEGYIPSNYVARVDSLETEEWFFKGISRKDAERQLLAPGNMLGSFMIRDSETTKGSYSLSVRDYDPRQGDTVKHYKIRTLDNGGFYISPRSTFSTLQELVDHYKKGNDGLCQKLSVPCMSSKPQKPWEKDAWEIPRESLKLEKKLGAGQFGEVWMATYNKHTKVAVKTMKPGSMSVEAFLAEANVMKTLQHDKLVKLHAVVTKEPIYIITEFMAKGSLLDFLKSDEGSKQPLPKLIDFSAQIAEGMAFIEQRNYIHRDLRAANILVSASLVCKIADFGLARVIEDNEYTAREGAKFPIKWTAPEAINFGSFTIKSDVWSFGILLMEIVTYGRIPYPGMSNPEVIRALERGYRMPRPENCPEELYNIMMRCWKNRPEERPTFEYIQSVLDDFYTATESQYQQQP

COc1cc2ncnc(Nc3cccc(Cl)c3)c2cc1OC
IC50: 943 nM
